Measurements: article PMC3592886, “Utilization of Quantitative In Vivo Pharmacology Approaches to Assess Combination Effects of Everolimus and Irinotecan in Mouse Xenograft Models of Colorectal Cancer” (PLoS ONE, 2013)
Like-named read-outs stand apart in the source and are kept apart here. Marks after values point to notes of the source that are not given here.

How the values were obtained:
[1] = system: VEGF and bFGF stimulated endothelial cells (HUVECs); parameters: method as in PMID 19223496; details: read-out: IC50, anti-proliferative activity; cited from earlier work
[2] = Human pharmacokinetics of everolimus from the literature; type: in vivo; details: humans at the clinically used doses of 5 to 10 mg per day; 75% plasma protein binding used; from data of ref 25, 26
Source text: For in vivo studies, we established doses of everolimus and irinotecan to administer to mice that would yield exposures at or below clinically achievable levels. Human pharmacokinetic information on everolimus, [26] and irinotecan/SN38 [27]–[30] was gathered from the literature and is presented in Tables 1 and 2 respectively.

[3] = Pharmacokinetic study of everolimus in mice bearing HT29 tumors (plasma and tumor, LC/MS/MS); type: in vivo; details: for Cmax / Tmax / AUC(0-t) / CL/F / Vd/F / half-life: nude; for CL/F: read-out: CLss/F (converted); for Vd/F: read-out: Vz/F; for half-life: read-out: t½ (converted)
Protocol: A pharmacokinetic study of everolimus was conducted in mice bearing HT29 tumors (average volume ∼300 mm^3). Mice were treated with either 2.5 or 10 mg/kg everolimus daily for 7 days by oral gavage. Three mice per dose level were sacrificed by cardiac stick exsanguination at 30 minutes, 2, 4, 6 and 24 hours following drug administration on day 7. Plasma and tumor tissue were snap-frozen in liquid N2 and stored at −70°C until analyzed.
Everolimus was measured in plasma and tumors by LC/MS/MS assay. Analytical standards, quality control (QC) and unknowns were all prepared by adding 200 µl of unknown or spiked blank plasma or tumor homogenate (100 mg/ml in water) samples to a 1.5 ml microcentrifuge tube. Samples were extracted by the addition of 1 ml methyl tert-butyl ether (MTBE) followed by 10 min vortex mixing. Samples were centrifuged at 13,000 RPM for 10 min and the supernatant collected and 900 µl transferred to a clean glass test tube. Samples were evaporated to dryness using a rotary evaporator followed by re-suspension in 100 µl of 50% acetonitrile/50% 10 mM ammonium acetate and transferred to auto-sampler vials for analysis. Mass spectra for extracted samples was obtained on a MDS Sciex 3200 Q-TRAP triple quadrupole mass spectrometer (Applied Biosystems, Inc., Foster City, CA) with a turbo ionspray source interfaced to an Agilent 1200 Series Binary Pump SL HPLC system (Santa Clara, CA).The lower and upper limits of quantitation for the assay were 1 and 5000 nM, respectively. Accuracy and precision (% RSD) based on analysis of standards and QC samples for this assay were 90.7% and 5.5% for plasma and 93.0% and 4.2% for tumor. Additional details may be found in Supplement S1 (section SA.1.).
Plasma and tumor pharmacokinetic parameters were calculated by noncompartmental analysis with WinNonlin. Everolimus plasma data was fit to a two-compartment model with first-order absorption and simulations of plasma concentrations at a 5 mg/kg dose of everolimus were performed by SAAM II version 2.1 (The Epsilon Group, Charlottesville, VA/University of Washington).

[4] = system: ribosomal phospho-S6 kinase (pS6RP); assay: Western blot, pS6RP in CRC cell lines; type: cell-based; details: everolimus 20 nM, 24 hours, all cell lines
Protocol: Cells were seeded into 6-well plates 24 hours prior to treatment with each drug alone or in combination for 24 hours. Cells were scraped into RIPA buffer containing protease inhibitors, EDTA, NaF, and sodium orthovanadate. Total protein was determined using the Pierce 660 nm Protein Assay (Pierce, Rockford, IL). Thirty micrograms of total protein was loaded onto a 4–12% gradient gel, electrophoresed and transferred to nitrocellulose using the iBlot system (Invitrogen, Carlsbad, CA). Membranes were blocked for one hour at room temperature with Licor Blocking Buffer (Licor, Lincoln, NE) prior to overnight incubation at 4°C with one of the following antibodies: pS6RP, tS6RP, pAKT, tAKT, pERK, tERK, p21, PARP, actin and α-tubulin (Cell Signaling, Beverly, MA). All antibodies were used at a 1∶1000 dilution except for pERK, which was used at 1∶2000. Following primary antibody incubation, blots were washed in TBS-Tween(0.1%), then incubated with the appropriate secondary antibody at 1∶15,000 (Licor, Lincoln, NE) for one hour at room temperature. After three additional washes, blots were developed using the Licor Odyssey (Licor, Lincoln, NE).

HCT116 cells = assay: In vitro metabolomics, HCT116 cells; type: cell-based; details: 24 and 96 hours exposure to 30nM RAD001
Protocol: Metabolomics was performed in vitro on HCT116
(KRAS mt; PIK3CA mt) and HT29 (BRAF mt;
PIK3CA mt) cells after 0 (control), 24 and 96 hours exposure to 30nM RAD001. In both cell lines after 24 and 96 hours glucose uptake was reduced showing a decrease in proliferation. […]

HCT8 cells = assay: Sulforhodamine B (SRB) anti-proliferation assay, HCT8; type: cell-based; details: RAD (20 nM), SN38 (4 nM) or the combination of the two, Figure 2
Protocol: Cytoxic effects were determined using the sulforhodamine B (SRB) assay. Briefly, 5000 viable cells were plated into 96-well plates and incubated overnight prior to exposure with different concentrations of drugs. Cells were exposed to increasing concentrations of everolimus (0–200 nM), SN38 (0–8 nM), and combinations of the two. Following a 72 hour incubation, media was removed and cells were fixed with cold 10% trichloroacetic acid for 30 minutes at 4° C. Cells were washed with water and stained with 0.4% SRB for 30 minutes at room temperature. Cells were washed again with 1% acetic acid and stain was solubilized with 10 mM tris at room temperature and read at an OD of 565 nm. […] The resulting Combination Index (CI) was used as a quantitative measure of the degree of interaction between different drugs. A CI value equal to 1 denotes additivity; CI greater than 1, antagonism; CI less than 1, synergism.

HCT116 tumor xenografts = system: HCT116 tumor xenografts; parameters: method as in PMID 19223496, PMID 20124452; details: everolimus at 10–12 mg/kg, mice bearing HCT116 tumor xenografts; cited from earlier work
[5] = 2.5 mg/kg daily oral for 7 days, Mouse, plasma, steady-state
[6] = 10 mg/kg daily oral for 7 days, Mouse, plasma, steady-state
[7] = mouse, po, HT29 tumor, 2.5 mg/kg, mice
[8] = mouse, po, HT29 tumor, 10 mg/kg, mice
[9] = mouse, po, plasma, 2.5 mg/kg, mice, non-compartmental analysis
[10] = mouse, po, plasma, 10 mg/kg, mice, non-compartmental analysis

CO[C@H]1C[C@@H]2CC[C@@H](C)[C@@](O)(O2)C(=O)C(=O)N2CCCC[C@H]2C(=O)O[C@H]([C@H](C)C[C@@H]2CC[C@@H](OCCO)[C@H](OC)C2)CC(=O)[C@H](C)/C=C(\C)[C@@H](O)[C@@H](OC)C(=O)[C@H](C)C[C@H](C)/C=C/C=C/C=C/1C [Everolimus, 40-O-(2-hydroxyethyl)-rapamycin]
IC50 [1]: 0.1 to 0.8 nM | AUCss,free (steady-state free plasma exposure) [2]: 60 to 178 ng·h/mL | Cmin [3, 5]: 12±6 ^b ng/mL | Cmin [3, 6]: 59±5 ^b ng/mL | AUCss,free (steady-state free plasma exposure) ([3]; 10 mg/kg in mice, 99% plasma protein binding used): 116 ng·h/mL | Cmax [3, 7]: 52 nM | Tmax [3, 7]: 0.5 h | AUC(0-t) ([3]; mouse, po, HT29 tumor, 2.5 mg/kg, mice, read-out: AUC0→24): 0.742 µM·h | Cmax [3, 8]: 250 nM | Tmax [3, 8]: 4 h | AUC(0-t) ([3]; mouse, po, HT29 tumor, 10 mg/kg, mice, read-out: AUC0→24): 3.93 µM·h | Cmax [3, 9]: 365 nM | Tmax [3, 9]: 0.5 h | AUC(0-t) ([3]; mouse, po, plasma, 2.5 mg/kg, mice, non-compartmental analysis, read-out: AUC0→24): 2 µM·h | CL/F [3, 9]: 20 mL/min/kg | Vd/F [3, 9]: 10.8 L/kg | Cmax [3, 10]: 1760 nM | Tmax [3, 10]: 0.5 h | AUC(0-t) ([3]; mouse, po, plasma, 10 mg/kg, mice, non-compartmental analysis, read-out: AUC0→24): 12.1 µM·h | CL/F [3, 10]: 13.8 mL/min/kg | Vd/F [3, 10]: 6 L/kg | Cmax [3, 5]: 350 ± 230 ng/mL | AUC(0-t) ([3]; 2.5 mg/kg daily oral for 7 days, Mouse, plasma, read-out: AUC0→t): 1920 ng·h/mL | half-life ([3]; 2.5 mg/kg daily oral for 7 days, Mouse, plasma): 6 h | Cmax [3, 6]: 1680 ± 277 ng/mL | AUC(0-t) ([3]; 10 mg/kg daily oral for 7 days, Mouse, plasma, read-out: AUC0→t): 11600 ng·h/mL | half-life ([3]; 10 mg/kg daily oral for 7 days, Mouse, plasma): 5 h | effect on ribosomal phospho-S6 kinase (pS6RP) [4]: able to inhibit | glucose uptake (HCT116 cells): reduced | %Growth Inhibition (HCT8 cells): 59% | tumor growth inhibition, single agent (HCT116 tumor xenografts): 45–55%
